Laboratory results published in EPA's ToxValDB 9.5 (doi:10.2903/j.efsa.2005.45r).

Experiments:
[1] = tested on: Anas platyrhynchos
[2] = tested on: Aphidius rhopalosiphi; details: acute; duration: 7 days; mortality
[3] = tested on: Apis mellifera; details: acute; duration: 48 hours; oral; unspecified; mortality
[4] = tested on: Canidae; details: subchronic; duration: 90 days; oral; Dog Other; body weight
[5] = tested on: Chrysoperla externa; details: not reported; mortality
[6] = tested on: Colinus virginianus; details: oral
[7] = tested on: Daphnia magna; details: chronic/long-term; duration: 21 days; reproduction
[8] = tested on: Oncorhynchus mykiss
[9] = tested on: Rattus norvegicus; details: for NOAEL: chronic
[10] = tested on: Tagia sp.; details: acute; mortality
[11] = short-term, oral, feed, mortality

## CCS(=O)(=O)c1cccnc1S(=O)(=O)NC(=O)Nc1nc(OC)cc(OC)n1 [Rimsulfuron]
[1]; acute, oral, unspecified, mortality
  LD50: > 2250 mg/kg
[1]; reproductive
  NOAEL: 1250 mg/kg
[1]; short-term, oral, feed
  NOEC: 5620 mg/kg
[1]; [11]
  LC50: > 5620 mg/kg
  LD50: > 1610 mg/kg-day
[2]
  LEL: < 37.5 g/ha
[3]
  LD50: > 100 µg/piece
[4]
  NOAEL: 9.63 mg/kg-day
[5]
  LEL: 37500 g/ha
[6]; acute, diet, mortality
  LC50: > 5620 mg/kg
[6]; acute, mortality
  LD50: > 2250 mg/kg
[6]; short-term, diet
  NOEC: 5620 mg/kg-day
[7]
  NOEC: 1 mg/L
[8]; acute, duration: 96 hours, mortality
  LC50: > 390 µg/mL
[8]; chronic/long-term, duration: 21 days, growth
  NOEC: 125 mg/L
[9]; acute, oral, mortality
  LD50: > 5000 mg/kg
[9]
  NOAEL: 3000 mg/kg-day
[9]; duration: 2 years, oral, body weight
  NOAEL: 11.8 mg/kg-day
[10]
  LC50: > 1000 mg/kg
